Measured values published in PubChem BioAssay (NCI).
Several values for one entry are separate records, joined by “and”; a condition that tells them apart may be missing. Identical values can stand only once.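 Step 1: Grow cells in 96-well plates. Step 2: Expose to compound for 48 hours at 5 concentrations. Step 3: Interpolate endpoints linearly; if unreached, use highest concentration. Abbreviation: GI50, concentration required for 50% inhibition of growth. TGI marks complete inhibition of growth.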

Key:
Experiment in all cases: NCI tumour cell line growth inhibition, 48 h
[1] = tested on: SF-539 CNS
[2] = tested on: RPMI-8226 leukemia
[3] = tested on: UO-31 renal
[4] = tested on: SNB-19 CNS
[5] = tested on: K-562 leukemia
[6] = tested on: SF-268 CNS
[7] = tested on: OVCAR-5 ovarian
[8] = tested on: MCF7 breast
[9] = tested on: MDA-MB-435
[10] = tested on: NCI/ADR-RES ovarian

| Compound | TGI [1] | TGI [2] | TGI [3] | TGI [4] | TGI [5] | TGI [6] | TGI [7] | TGI [8] | TGI [9] | GI50 [8] | GI50 [1] | GI50 [9] | GI50 [3] | GI50 [4] | GI50 [5] | GI50 [10] | TGI [10] | GI50 [7] | GI50 [2] | GI50 [6] |
| --- | --- | --- | --- | --- | --- | --- | --- | --- | --- | --- | --- | --- | --- | --- | --- | --- | --- | --- | --- | --- |
| Nc1nc(N)c2nc(-c3ccco3)cnc2n1 | > 100000 nM | > 100000 nM | > 100000 nM | > 100000 nM | > 100000 nM | > 100000 nM | > 100000 nM |  |  |  |  |  |  |  |  |  |  |  |  |  |
| CC[C@@]1(O)C(=O)OCc2c1cc1n(c2=O)Cc2c-1nc1ccccc1c2/C=N\NC(=O)C(N)Cc1cnc[nH]1 (stereo not given in full) | 538 nM | 44000 nM | 2330 nM | > 100000 nM | > 100000 nM | > 25800 nM | > 54600 nM | 35300 nM | > 85900 nM |  |  |  |  |  |  |  |  |  |  |  |
| COc1cc2cc(C(=O)N3CC(CCl)c4c3cc(N(C)C)c3ccccc43)[nH]c2c(OC)c1OC (stereo not given) | 13.2 nM | 501 nM |  | 10600 nM | 47.7 nM | 16 nM | 39 nM |  |  |  |  |  |  |  |  |  |  |  |  |  |
| CCOC(=O)c1c(C)[nH]c(/C=C2\N=C(c3ccc[nH]3)C=C2OC)c1C | 1280 nM |  | 58 nM | > 42300 nM | 1530 nM |  | 1510 nM | 1300 nM | 1150 nM | 46.9 nM | 60.6 nM | 18.6 nM | 23.9 nM | 735 nM | 50.4 nM | 45.7 nM | 3450 nM | 40.4 nM |  |  |
| O=C1C=C(N2CC2)C(=O)C=C1N1CC1 | 267 nM and 268 nM | 503 nM and 1870 nM | 229 nM | 4720 nM | 2940 nM | 299 nM and 1500 nM | 366 nM and 2200 nM | 71.2 nM |  | 2.05 nM | 22.1 nM | 20.6 nM |  | 203 nM | 246 nM | 24.1 nM |  | 78.4 nM | 45.6 nM | 10.9 nM |
